Seven compounds from paper PMC3433420 (PLoS ONE, 2012) can be followed below.

By Kd is commonly meant the free concentration of one partner at which half of the binding sites on the other are occupied at equilibrium, for simple one-to-one binding. A high value points to lower affinity.

In one experiment the target is SH2D2A SH2 domain (Homo sapiens, UniProt Q9NP31). In words: FP saturation binding assay.
The target of a further experiment is T1, SH2D1A SH2 domain (Homo sapiens, UniProt O60880).
T1 sequence (O60880 6-104 limits assumed): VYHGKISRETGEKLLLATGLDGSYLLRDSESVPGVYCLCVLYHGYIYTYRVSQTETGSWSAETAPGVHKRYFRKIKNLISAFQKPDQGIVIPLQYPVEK
Nature of the experiment: FP saturation binding assay. The conditions noted are these: for KD range of recruitment of SH2D1A (SHD1A [sic]): FP saturation assay.

The next experiment deals with T2, SH2D1B SH2 domain (Homo sapiens, UniProt O14796).
T2 sequence (O14796 5-101 limits assumed): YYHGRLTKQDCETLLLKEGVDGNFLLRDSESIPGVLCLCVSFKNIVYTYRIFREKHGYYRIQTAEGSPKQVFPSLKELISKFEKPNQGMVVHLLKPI
Nature of the experiment: FP saturation binding assay. The conditions noted are these: FP saturation assay.

Experiment [1] has as its target T3, PLCG1-NC tandem SH2 domains (Homo sapiens, UniProt P19174).
T3 construct: the tandem protein was included in our analysis with all internal amino acids linking the domains; 6X His; thioredoxin; made in house; host or cells: E. coli BL21(DE3)pLysS
T3 sequence (P19174 550-756 limits assumed): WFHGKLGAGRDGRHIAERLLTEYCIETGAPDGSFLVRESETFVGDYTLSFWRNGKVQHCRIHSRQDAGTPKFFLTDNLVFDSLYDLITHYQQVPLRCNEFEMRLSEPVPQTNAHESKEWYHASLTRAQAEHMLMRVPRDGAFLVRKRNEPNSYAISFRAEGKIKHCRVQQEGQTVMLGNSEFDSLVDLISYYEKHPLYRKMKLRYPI
Nature of the experiment: FP saturation binding assay. The settings on record: Protein PLCG1-NC; FP saturation binding, high-confidence ErbB interactions; mean over replicate hits. As for the experimental part:
(See Figure 1A) Rhodamine-labeled peptides were dissolved in assay buffer (20 mM HEPES, 100 mM KCl, 0.1% Tween-20, 5 mM DTT, pH 7.8), diluted to a concentration of 20 nM, and plated into black 384-well plates (Corning, Corning, NY) at 5 µL/well using a Perkin Elmer EP3 pipetting workstation (V&P Scientific, Inc., San Diego, CA). SH2, PTB, and thioredoxin control proteins were plated into the first column of 2 mL 96-well plates (Corning) at a concentration of 20 µM and serially diluted 1∶2 into freezing buffer (300 mM NaCl, 50 mM Na2PO4, pH 8, 20% glycerol v/v) eleven times using a Tecan Freedom EVO 100 workstation (Tecan, Männedorf, Switzerland). For the interaction assay, 5 µL of each of the twelve protein concentrations was added to the peptide-containing 384-well plates via the EP3 resulting in a protein dilution range of 0.002–10 µM and a final volume of 10 µL; peptide concentration was fixed at 10 nM. […] Experimental values were output as millipolarization (mP) units and imported into MATLAB (The MathWorks, Inc., Natick, MA) in which equation (1) was used to determine dissociation constants (KDs) for each protein/peptide pairing by least squares nonlinear regression. [drawing 1] (1)
(§1) FP was described by the following equation: P=Iparallel-IperpendicularIparallel+Iperpendicular, where “P” denotes polarization, and “I” denotes the fluorescent intensity relative to the plane of incident light. Experimental values were output as millipolarization (mP) units and imported into MATLAB where the following equation was used to determine dissociation constants (KDs) for each protein/peptide pairing by least squares nonlinear regression:
(§2) Pobs=Pmax∙ProteinKD+Protein [picture] (1)
Peptides were initially tested for systematic plate effects across protein dilutions and nonspecific binding to thioredoxin by linear regression analysis and any effects were regressed out. The median baseline control polarization value for each plate was then subtracted from each data point to make each binding curve intersect at zero. Plates with excessive variation in baseline control polarizations on both a global and run-specific manner (Dixon’s Q test, p < 0.05) were excluded from further analysis. Outliers in each binding curve were identified and removed using an iterative procedure as follows. The residuals for each fit were used to calculate a global standard deviation of the residuals (GSDR) for each concentration of SH2 domain over all interactions, and individual data points with residuals < or > two GSDR from the global mean residual were flagged as outliers. The outlier with the largest residual from each interaction was removed and nonlinear regression was again performed. This procedure was repeated if additional outliers were identified for an interaction, discarding the interaction if the number of outliers exceeded three. […] In order to further control our false positive rate against hidden confounding variables producing binding artifacts, we sought to determine whether there was a significant relationship between the strength of an interaction and its technical replication rate at our stringent significance and filtering thresholds. We performed logistic regression on the proportion of successful replicates for each interaction query against KD for all interactions (Figure S15A). […] “High-confidence” FP interactions are defined as those having 1 - P(Observed Replication Rate | Expectation) > 0.5 and that have replicated at least twice across independent FP runs. […] The compiled FP data were organized into heatmaps generated by MATLAB and relative binding strength (µM). Peptides without at least one positive hit were classified as “no interaction” if there was no homologous sequence (i.e. identical at the +1 to +4 positions relative to the phosphotyrosine) that produced a positive interaction within the ErbB receptor family.

In experiment [2] the target is PIK3R2-NC tandem SH2 domains (Homo sapiens, UniProt O00459). Nature of the experiment: FP saturation binding assay.
In experiment [3] the target is T4, PIK3R3-NC tandem SH2 domains (Homo sapiens, UniProt Q92569).
T4 construct: the tandem protein was included in our analysis with all internal amino acids linking the domains; 6X His; thioredoxin; made in house; host or cells: E. coli BL21(DE3)pLysS
In words: FP saturation binding assay. The settings on record: Protein PIK3R3-NC; FP saturation binding, high-confidence ErbB interactions; mean over replicate hits. As for the experimental part: (See Figure 1A) Rhodamine-labeled peptides were dissolved in assay buffer (20 mM HEPES, 100 mM KCl, 0.1% Tween-20, 5 mM DTT, pH 7.8), diluted to a concentration of 20 nM, and plated into black 384-well plates (Corning, Corning, NY) at 5 µL/well using a Perkin Elmer EP3 pipetting workstation (V&P Scientific, Inc., San Diego, CA). SH2, PTB, and thioredoxin control proteins were plated into the first column of 2 mL 96-well plates (Corning) at a concentration of 20 µM and serially diluted 1∶2 into freezing buffer (300 mM NaCl, 50 mM Na2PO4, pH 8, 20% glycerol v/v) eleven times using a Tecan Freedom EVO 100 workstation (Tecan, Männedorf, Switzerland). For the interaction assay, 5 µL of each of the twelve protein concentrations was added to the peptide-containing 384-well plates via the EP3 resulting in a protein dilution range of 0.002–10 µM and a final volume of 10 µL; peptide concentration was fixed at 10 nM. Peptide/protein samples were incubated for 20 minutes at room temperature in the dark and fluorescence polarization (FP) was measured in an Analyst GT multimode reader (Molecular Devices, Sunnyvale, CA) with excitation and emission wavelengths of 530 nm and 555 nm, respectively. Experimental values were output as millipolarization (mP) units and imported into MATLAB (The MathWorks, Inc., Natick, MA) in which equation (1) was used to determine dissociation constants (KDs) for each protein/peptide pairing by least squares nonlinear regression. [drawing 1] (1)
as §1, §2
Peptides were initially tested for systematic plate effects across protein dilutions and nonspecific binding to thioredoxin by linear regression analysis and any effects were regressed out. The median baseline control polarization value for each plate was then subtracted from each data point to make each binding curve intersect at zero. Plates with excessive variation in baseline control polarizations on both a global and run-specific manner (Dixon’s Q test, p < 0.05) were excluded from further analysis. Outliers in each binding curve were identified and removed using an iterative procedure as follows. The residuals for each fit were used to calculate a global standard deviation of the residuals (GSDR) for each concentration of SH2 domain over all interactions, and individual data points with residuals < or > two GSDR from the global mean residual were flagged as outliers. The outlier with the largest residual from each interaction was removed and nonlinear regression was again performed. This procedure was repeated if additional outliers were identified for an interaction, discarding the interaction if the number of outliers exceeded three. […] In order to further control our false positive rate against hidden confounding variables producing binding artifacts, we sought to determine whether there was a significant relationship between the strength of an interaction and its technical replication rate at our stringent significance and filtering thresholds. We performed logistic regression on the proportion of successful replicates for each interaction query against KD for all interactions (Figure S15A). […] This is related to the observation that the majority of interactions detected by FP are tight (Figure S15B). With this logit model, we assigned a probability to each peptide-protein interaction in our data by using a binomial proportions test to compare the observed versus the expected replication rate at the particular KD of that interaction (Table S4). […]

The target in a further experiment is T5, RASA1-N SH2 domain (Homo sapiens, UniProt P20936).
T5 sequence (P20936 181-272 limits assumed): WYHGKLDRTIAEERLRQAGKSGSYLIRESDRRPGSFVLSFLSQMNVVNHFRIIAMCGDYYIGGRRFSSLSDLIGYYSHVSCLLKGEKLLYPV
Nature of the experiment: FP saturation binding assay.

A further experiment addresses T6, PIK3R3-C SH2 domain (Homo sapiens, UniProt Q92569).
T6 construct: thioredoxin; made in house; host or cells: E. coli BL21(DE3)pLysS
Nature of the experiment: biochemical. It counts as binding. The conditions noted are these: Protein PIK3R3-C; FP saturation binding, high-confidence ErbB interactions; mean over replicate hits.

Residues, ends and D or L forms follow the SMILES beside them.

Chain of SH2D2A SH2 domain (Q9NP31 95-186 limits assumed): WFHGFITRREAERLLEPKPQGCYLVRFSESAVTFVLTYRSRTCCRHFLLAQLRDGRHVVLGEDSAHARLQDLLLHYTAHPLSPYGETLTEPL
Chain of PIK3R2-NC tandem SH2 domains (O00459 330-716 limits assumed): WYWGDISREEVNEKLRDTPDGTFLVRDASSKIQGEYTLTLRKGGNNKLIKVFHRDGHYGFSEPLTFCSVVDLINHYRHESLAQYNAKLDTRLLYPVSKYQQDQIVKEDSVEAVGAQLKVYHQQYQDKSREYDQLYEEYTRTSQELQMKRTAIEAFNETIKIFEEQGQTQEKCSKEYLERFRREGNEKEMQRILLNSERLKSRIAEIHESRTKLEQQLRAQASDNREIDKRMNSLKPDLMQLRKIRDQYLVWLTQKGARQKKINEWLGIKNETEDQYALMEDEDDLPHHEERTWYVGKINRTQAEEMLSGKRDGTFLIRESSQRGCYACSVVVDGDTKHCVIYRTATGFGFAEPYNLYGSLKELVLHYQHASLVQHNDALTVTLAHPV

In turn, `CC[C@H](C)[C@H](NC(=O)[C@H](CCCNC(=N)N)NC(=O)[C@H](Cc1c[nH]cn1)NC(=O)[C@@H](N)CC(C)C)C(=O)N[C@@H](Cc1ccc(OP(=O)(O)O)cc1)C(=O)N[C@H](C(=O)N[C@@H](Cc1c[nH]cn1)C(=O)N[C@@H](CCC(N)=O)C(=O)N[C@@H](CO)C(=O)N[C@@H](CC(=O)O)C(=O)N[C@H](C(=O)N[C@@H](Cc1c[nH]c2ccccc12)C(=O)N[C@@H](CC(=O)O)C(=O)O)C(C)C)[C@@H](C)O` [ErbB1 891 13-mer] (HELM PEPTIDE1{L.H.R.I.[O=C([C@H](Cc1ccc(OP(=O)(O)O)cc1)N[*:1])[*:2]].T.H.Q.S.D.V.W.D}$$$$V2.0) came in with a Kd on SH2D2A SH2 domain of 13.4 µM.

With LDEApYVMAGVGS [ErbB2 pY772], at SH2D1A SH2 domain, the “KD range of recruitment of SH2D1A (SHD1A [sic])” value is “in the nM KD range”. Also, the “KD range of recruitment of SH2D1B” value at SH2D1B SH2 domain was “in the nM KD range”.

Turning to `CC[C@H](C)[C@H](NC(=O)[C@H](Cc1ccc(OP(=O)(O)O)cc1)NC(=O)[C@H](CCC(=O)O)NC(=O)[C@@H]1CCCN1C(=O)[C@@H](NC(=O)[C@@H]1CCCN1)C(C)C)C(=O)N[C@@H](CC(N)=O)C(=O)N[C@@H](CCC(N)=O)C(=O)N[C@@H](CO)C(=O)N[C@H](C(=O)N1CCC[C@H]1C(=O)N[C@@H](CCCCN)C(=O)N[C@@H](CC(=O)O)C(=O)O)C(C)C` [ErbB1 1092 13-mer], the equilibrium dissociation constant (Kd) was determined as 7.58 µM in experiment [1], 10.9 µM on SH2D2A SH2 domain, 11.2 µM in experiment [2] and 8.64 µM in experiment [3].

`CC[C@H](C)[C@H](NC(=O)CNC(=O)[C@H](CC(=O)O)NC(=O)[C@H](Cc1ccc(OP(=O)(O)O)cc1)NC(=O)[C@@H]1CCCN1C(=O)[C@H](CCCCN)NC(=O)[C@H](CO)NC(=O)CN)C(=O)N1CCC[C@H]1C(=O)N[C@@H](C)C(=O)N[C@@H](CO)C(=O)N[C@@H](CCC(=O)O)C(=O)N[C@@H](CC(=O)O)C(=O)O` [ErbB1 915 13-mer] (HELM PEPTIDE1{G.S.K.P.[O=C([C@H](Cc1ccc(OP(=O)(O)O)cc1)N[*:1])[*:2]].D.G.I.P.A.S.E.D}$$$$V2.0): the dissociation constant Kd at SH2D1A SH2 domain was 14.5 µM; at SH2D2A SH2 domain, 4.77 µM.

On to FGTVpYKGIWVPEd [ErbB4 pY733], for which, at SH2D1A SH2 domain, the “KD range of recruitment of SH2D1A (SHD1A [sic])” value is “in the nM KD range”. For the same compound, the “KD range of recruitment of SH2D1B” value at SH2D1B SH2 domain is given as “in the nM KD range”.

With `CSCC[C@H](NC(=O)[C@H](Cc1ccc(OP(=O)(O)O)cc1)NC(=O)[C@H](CCC(=O)O)NC(=O)[C@H](Cc1ccc(O)cc1)NC(=O)[C@H](CCC(=O)O)NC(=O)[C@@H](N)CCC(=O)O)C(=O)N[C@@H](CC(N)=O)C(=O)N[C@@H](CCCNC(=N)N)C(=O)N[C@@H](CCCNC(=N)N)C(=O)N[C@@H](CCCNC(=N)N)C(=O)N[C@@H](CCCNC(=N)N)C(=O)N[C@@H](Cc1c[nH]cn1)C(=O)N[C@@H](CC(=O)O)C(=O)O` [ErbB3 1199 13-mer] (HELM PEPTIDE1{E.E.Y.E.[O=C([C@H](Cc1ccc(OP(=O)(O)O)cc1)N[*:1])[*:2]].M.N.R.R.R.R.H.D}$$$$V2.0), the dissociation constant (Kd) at SH2D2A SH2 domain is 13.9 µM.

Consider `NCCCC[C@H](NC(=O)[C@@H]1CCCN1C(=O)[C@H](Cc1ccccc1)NC(=O)[C@H](Cc1ccccc1)NC(=O)[C@H](CC(=O)O)NC(=O)[C@H](CCC(N)=O)NC(=O)[C@H](CCC(N)=O)NC(=O)[C@H](Cc1ccc(OP(=O)(O)O)cc1)NC(=O)[C@H](CC(=O)O)NC(=O)[C@@H]1CCCN1C(=O)[C@H](CC(N)=O)NC(=O)[C@@H](N)CC(=O)O)C(=O)N[C@@H](CC(=O)O)C(=O)O` [ErbB1 1172 13-mer] (HELM PEPTIDE1{D.N.P.D.[O=C([C@H](Cc1ccc(OP(=O)(O)O)cc1)N[*:1])[*:2]].Q.Q.D.F.F.P.K.D}$$$$V2.0), for which the results for the equilibrium dissociation constant (Kd) (at RASA1-N SH2 domain; in experiment [1]; on PIK3R3-C SH2 domain) were 4.17 µM, 7.79 µM and 12.6 µM, respectively.
